Experimental data from patent EP4813463A2, “TYK2 INHIBITORS AND COMPOSITIONS AND METHODS THEREOF” (Lynk Pharmaceuticals Co. Ltd., priority 2023, dated 2024).
Where two headings read alike, the source gives them in different places. One block for each compound: values may come before it.

Legend:
TYK2-JH2 domain = target: T1, TYK2-JH2 domain (Homo sapiens, UniProt P29597); experiment: Binding activity test for JH2 domain of TYK2 (Tb-antibody/tracer FRET)
T1 construct: JAK1-JH2 domain or TYK2-JH2 domain enzyme in assay buffer
Method in brief: (§1)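 Competitive TR-FRET binding: compounds dispensed as an 11-point 3-fold dilution series, then Tb-labelled antibody and tracer added to the JH2 protein system. Incubated at 25°C, then overnight at 4°C; FRET signal read on Envision and IC50 (nM) derived.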

JAK1-JH2 domain = target: T2, JAK1-JH2 domain (Homo sapiens, UniProt P23458); experiment: Binding activity test for JH2 domain of JAK1 (Tb-antibody/tracer FRET)
T2 construct: JAK1-JH2 domain or TYK2-JH2 domain enzyme in assay buffer
Method in brief: as §1

[1] = test system: Ba/F3-FL-TYK2-P760L cells; experiment: Anti-proliferative assay in engineered Ba/F3 cells (Cell-Titer Glo, 72 h); format: cell-based; details: concentration that causes 50% growth inhibition, read-out: Baf3-FL-T2P760L
Method in brief: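 Ba/F3 cells carrying Tel-dimerization/JAK kinase fusion, IL-3-independent, in RPMI-1640 + 10% FBS; 9-point 3-fold dilutions from 20 µM (0.1% DMSO) added after 24 h, 72 h at 37 °C. Viability by Cell-Titer Glo ATP luminescence; % inhibition versus DMSO cells, blank-corrected, giving IC50.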

[2] = JH2 domain enzyme; 60 min at 25°C, then 4°C overnight; read-out: TYK2 JH2 Binding IC50
[3] = ratio of JAK1 JH2 to TYK2 JH2 binding IC50
[4] = JH2 domain enzyme; 60 min at 25°C, then 4°C overnight; read-out: JAK1 JH2 Binding IC50
[5] = Mus musculus, BaF3, 72 h, 72 h compound treatment
[6] = read-out: TYK2 JH2 Binding IC50; JH2 domain enzyme; 60 min at 25°C, then 4°C overnight
[7] = read-out: JAK1 JH2 Binding IC50; JH2 domain enzyme; 60 min at 25°C, then 4°C overnight
[8] = Mus musculus, BaF3, 72 h compound treatment

T2 sequence (P23458 583-855 limits assumed): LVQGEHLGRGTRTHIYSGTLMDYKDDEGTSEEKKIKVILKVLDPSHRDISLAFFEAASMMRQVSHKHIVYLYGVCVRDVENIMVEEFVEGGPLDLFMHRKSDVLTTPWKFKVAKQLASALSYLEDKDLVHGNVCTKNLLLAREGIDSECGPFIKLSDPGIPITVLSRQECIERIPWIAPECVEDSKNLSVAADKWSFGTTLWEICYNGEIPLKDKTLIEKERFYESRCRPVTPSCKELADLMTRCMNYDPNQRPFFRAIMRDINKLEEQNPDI
T1 sequence (P29597 589-875 limits assumed): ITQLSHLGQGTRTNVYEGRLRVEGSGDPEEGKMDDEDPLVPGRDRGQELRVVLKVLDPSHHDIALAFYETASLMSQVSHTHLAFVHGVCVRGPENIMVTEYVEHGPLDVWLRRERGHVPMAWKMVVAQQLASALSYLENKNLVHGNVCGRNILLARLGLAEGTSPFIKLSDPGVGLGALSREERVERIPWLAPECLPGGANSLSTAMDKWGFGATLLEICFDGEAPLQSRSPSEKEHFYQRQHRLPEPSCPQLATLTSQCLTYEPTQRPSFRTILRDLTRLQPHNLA

SMILES: CCC(F)(F)c1cnc(NC(=O)C2CC2)cc1Nc1nccc(-c2cnn(C)n2)c1OC [Example 174, N-(5-(1,1-difluoropropyl)-4-((3-methoxy-4-(2-methyl-2H-1,2,3-triazol-4-yl)pyridin-2-yl)amino)pyridin-2-yl)cyclopropanecarboxamide]
IC50 (TYK2-JH2 domain; [2]): 0.86 nM | JAK1/TYK2 selectivity (TYK2-JH2 domain; [3]): 71.45 | IC50 (JAK1-JH2 domain; [4]): 61.4 nM | IC50 [1, 5]: 15.4 nM

SMILES: [2H]C([2H])([2H])OC(=O)c1cnc(NC(=O)C2CC2)cc1Nc1cnn2ccc([C@H](OC([2H])([2H])[2H])C(F)(F)F)c(OC)c12 [Example 80, Methyl-d3 (S)-6-(cyclopropanecarboxamido)-4-((4-methoxy-5-(2,2,2-trifluoro-1-(methoxy-d3)ethyl)pyrazolo[1,5-a]pyridin-3-yl)amino)nicotinate]
IC50 (TYK2-JH2 domain; [2]): 0.26 nM | JAK1/TYK2 selectivity (TYK2-JH2 domain; [3]): 176.08 | IC50 (JAK1-JH2 domain; [4]): 46 nM | IC50 [1, 5]: 88.9 nM

SMILES: [2H]C([2H])([2H])NC(=O)c1cnc(NC(=O)[C@@H]2C[C@@H]2F)cc1Nc1cnn2cnc(C(O)C(F)(F)F)c(OC)c12 (stereo partly drawn) [Example 39, 6-((18,25)-2-fluorocyclopropane-1-carboxamido)-4-((4-methoxy-5-(2,2,2-trifluoro-1-hydroxyethyl)pyrazolo[1,5-c]pyrimidin-3-yl)amino)-N-(methyl-d3)nicotinamide]
JAK1/TYK2 selectivity (TYK2-JH2 domain; [3]): >532.1 | IC50 (TYK2-JH2 domain; [6]): 0.561 nM | IC50 (JAK1-JH2 domain; [7]): > 298 nM | IC50 [1, 8]: 350 nM

SMILES: COC(=O)c1cnc(NC(=O)C2CC2)cc1Nc1cccc(-c2ncn(C)n2)c1OC [Example 58, Methyl 6-(cyclopropanecarboxamido)-4-((2-methoxy-3-(1-methyl-1H-1,2,4-triazol-3-yl)phenyl)amino)nicotinate]
IC50 (TYK2-JH2 domain; [2]): 0.304 nM | JAK1/TYK2 selectivity (TYK2-JH2 domain; [3]): 39.30 | IC50 (JAK1-JH2 domain; [4]): 11.9 nM | IC50 [1, 5]: 32.4 nM

SMILES: [2H]C([2H])([2H])NC(=O)c1cnc(NC(=O)C2CC2)cc1Nc1cnn2ccc(COC)c(OC)c12 [Example 16, 6-(Cyclopropanecarboxamido)-4-((4-methoxy-5-(methoxymethyl)pyrazolo[1,5-a]pyridin-3-yl)amino)-N-(methyl-d3)nicotinamide]
IC50 (TYK2-JH2 domain; [2]): 0.22 nM | JAK1/TYK2 selectivity (TYK2-JH2 domain; [3]): 64.0 | IC50 (JAK1-JH2 domain; [4]): 14.1 nM | IC50 [1, 5]: 87 nM

SMILES: [2H]C([2H])([2H])OCc1ccc2c(c(Nc3cc(NC(=O)C4CC4)ncc3C(F)(F)CC)nn2C)c1OC [Example 172, N-(5-(1,1-difluoropropyl)-4-((4-methoxy-5-((methoxy-d3)methyl)-1-methyl-1H-indazol-3-yl)amino)pyridin-2-yl)cyclopropanecarboxamide]
IC50 (TYK2-JH2 domain; [2]): 0.79 nM | JAK1/TYK2 selectivity (TYK2-JH2 domain; [3]): 22.99 | IC50 (JAK1-JH2 domain; [4]): 18.2 nM | IC50 [1, 5]: 21.9 nM

IC50 (TYK2-JH2 domain; [2]): > 298 nM | IC50 (JAK1-JH2 domain; [4]): > 298 nM | IC50 [1, 5]: 1860 nM
SMILES: [2H]C([2H])([2H])NC(=O)c1nnc(NC(=O)C2CC2)cc1Nc1cccc(-c2ncn(C)n2)c1C(C)=O [Example 87, 4-((2-Acetyl-3-(1-methyl-1H-1,2,4-triazol-3-yl)phenyl)amino)-6-(cyclopropanecarboxamido)-N-(methyl-d3)pyridazine-3-carboxamide]

IC50 (TYK2-JH2 domain; [2]): > 298 nM | IC50 (JAK1-JH2 domain; [4]): > 298 nM | IC50 [1, 5]: > 5000 nM
SMILES: [2H]C([2H])([2H])NC(=O)c1nnc(NC(=O)C2CC2)cc1Nc1cccc(-c2ncn(C)n2)c1C(C)O (stereo not drawn) [Example 89, 6-(Cyclopropanecarboxamido)-4-((2-(1-hydroxyethyl)-3-(1-methyl-1H-1,2,4-triazol-3-yl)phenyl)amino)-N-(methyl-d3)pyridazine-3-carboxamide]

SMILES: COC(=O)c1c(Nc2nn(C)c3ccc(C(OC)C(F)(F)F)c(OC)c23)cc(NC(=O)C2CC2)nc1N (stereo not drawn) [Example 96, Methyl 2-amino-6-(cyclopropanecarboxamido)-4-((4-methoxy-1-methyl-5-(2,2,2-trifluoro-1-methoxyethyl)-1H-indazol-3-yl)amino) nicotinate]
JAK1/TYK2 selectivity (TYK2-JH2 domain; [3]): >3.19 | IC50 (TYK2-JH2 domain; [6]): 93.6 nM | IC50 (JAK1-JH2 domain; [7]): > 298 nM | IC50 [1, 8]: 2990 nM

SMILES: [2H]C([2H])([2H])n1nc(Nc2cc(NC(=O)C3CC3)ncc2C(=O)OC)c2c(OC)c([C@H](OC)C(F)(F)F)ccc21 [Example 52A, Methyl (S)-6-(cyclopropanecarboxamido)-4-((4-methoxy-1-(methyl-d3)-5-(2,2,2-trifluoro-1-methoxyethyl)-1H-indazol-3-yl)amino)nicotinate]
IC50 (TYK2-JH2 domain; [2]): 0.082 nM | JAK1/TYK2 selectivity (TYK2-JH2 domain; [3]): 501.71 | IC50 (JAK1-JH2 domain; [4]): 41.1 nM | IC50 [1, 5]: 3.56 nM

SMILES: [2H]C([2H])([2H])OC(=O)c1cnc(NC(=O)C2CC2)cc1Nc1cnn2ccc([C@H](OC)C(F)(F)F)c(OC)c12 [Example 79, Methyl-d3 (S)-6-(cyclopropanecarboxamido)-4-((4-methoxy-5-(2,2,2-trifluoro-1-methoxyethyl)pyrazolo[1,5-a]pyridin-3-yl)amino)nicotinate]
IC50 (TYK2-JH2 domain; [2]): 0.28 nM | JAK1/TYK2 selectivity (TYK2-JH2 domain; [3]): 150.32 | IC50 (JAK1-JH2 domain; [4]): 42.7 nM | IC50 [1, 5]: 109 nM

SMILES: [2H]C([2H])([2H])NC(=O)c1cnc(NC(=O)C2CC2)cc1Nc1nn(C)c2ccc([C@@H](OC([2H])([2H])[2H])C(F)(F)F)c(OC)c12 [Example 55B, (R)-6-(cyclopropanecarboxamido)-4-((4-methoxy-1-methyl-5-(2,2,2-trifluoro-1-(methoxy-d3)ethyl)-1H-indazol-3-yl)amino)-N-(methyl-d3)nicotinamide]
IC50 (TYK2-JH2 domain; [2]): 0.08 nM | JAK1/TYK2 selectivity (TYK2-JH2 domain; [3]): 153.54 | IC50 (JAK1-JH2 domain; [4]): 12.3 nM | IC50 [1, 5]: 16.2 nM

SMILES: [2H]C([2H])([2H])NC(=O)c1cnc(NC(=O)C2CC2)cc1Nc1cnn2ccc(C(O)(C(F)(F)F)C(F)(F)F)c(OC)c12 [Example 84, 6-(Cyclopropanecarboxamido)-4-((5-(1,1,1,3,3,3-hexafluoro-2-hydroxypropan-2-yl)-4-methoxypyrazolo[1,5-a]pyridin-3-yl)amino)-N-(methyl-d3)nicotinamide]
IC50 (TYK2-JH2 domain; [2]): 4.24 nM | JAK1/TYK2 selectivity (TYK2-JH2 domain; [3]): >70.42 | IC50 (JAK1-JH2 domain; [4]): > 298 nM | IC50 [1, 8]: 634 nM

SMILES: [2H]C([2H])([2H])NC(=O)c1cnc(NC(=O)C2CC2)cc1Nc1nn(C)c2ccc(C(C)C(F)(F)F)c(OC)c12 (stereo not drawn) [Example 191, 6-(Cyclopropanecarboxamido)-4-((4-methoxy-1-methyl-5-(1,1,1-trifluoropropan-2-yl)-1H-indazol-3-yl)amino)-N-(methyl-d3)nicotinamide]
IC50 (TYK2-JH2 domain; [2]): 0.132 nM | JAK1/TYK2 selectivity (TYK2-JH2 domain; [3]): 45.15 | IC50 (JAK1-JH2 domain; [4]): 5.96 nM | IC50 [1, 5]: 2.51 nM

SMILES: [2H]C([2H])([2H])O[C@@H](c1ccc2c(c(Nc3cc(NC(=O)C4CC45CC5)ncc3C(=O)OC)nn2C)c1OC)C(F)(F)F (stereo partly drawn) [Example 136, Methyl 4-((4-methoxy-1-methyl-5-((S)-2,2,2-trifluoro-1-(methoxy-d3)ethyl)-1H-indazol-3-yl)amino)-6-(spiro[2.2]pentane-1-carboxamido)nicotinate]
IC50 (TYK2-JH2 domain; [2]): 0.21 nM | JAK1/TYK2 selectivity (TYK2-JH2 domain; [3]): 370.63 | IC50 (JAK1-JH2 domain; [4]): 77.8 nM | IC50 [1, 5]: 21.2 nM

SMILES: [2H]C([2H])([2H])NC(=O)c1cnc(NC(=O)C2CC23CC3)cc1Nc1cnn2ccc([C@H](O)C(F)(F)F)c(OC)c12 (single isomer, unassigned) [Example 32B, 4-((4-Methoxy-5-((S)-2,2,2-trifluoro-1-hydroxyethyl)pyrazolo[1,5-a]pyridin-3-yl)amino)-N-(methyl-d3)-6-((R*)-spiro[2.2]pentane-1-carboxamido)nicotinamide]
IC50 (TYK2-JH2 domain; [2]): 0.108 nM | JAK1/TYK2 selectivity (TYK2-JH2 domain; [3]): 106.2 | IC50 (JAK1-JH2 domain; [4]): 11.5 nM | IC50 ([1]; 72 h compound treatment): 27.3 nM

SMILES: [2H]C([2H])([2H])CC(=O)c1cnc(NC(=O)C2CC2)nc1Nc1cccc(-c2cnn(C)n2)c1OC [Example 167, N-(4-((2-methoxy-3-(2-methyl-2H-1,2,3-triazol-4-yl)phenyl)amino)-5-(propanoyl-3,3,3-d3)pyrimidin-2-yl)cyclopropanecarboxamide]
IC50 (TYK2-JH2 domain; [2]): 0.275 nM | JAK1/TYK2 selectivity (TYK2-JH2 domain; [3]): 116.34 | IC50 (JAK1-JH2 domain; [4]): 32 nM | IC50 [1, 5]: 60.9 nM

SMILES: [2H]C([2H])([2H])NC(=O)c1cnc(NC(=O)[C@@H]2C[C@@H]2F)cc1Nc1cnn2ccc(C(F)(F)F)c(OC)c12 [Example 11, 6-((1S,2S)-2-fluorocyclopropane-1-carboxamido)-4-((4-methoxy-5-(trifluoromethyl)pyrazolo[1,5-a]pyridin-3-yl)amino)-N-(methyl-d3)nicotinamide]
IC50 (TYK2-JH2 domain; [2]): 0.182 nM | JAK1/TYK2 selectivity (TYK2-JH2 domain; [3]): 96.5 | IC50 (JAK1-JH2 domain; [4]): 17.6 nM | IC50 [1, 5]: 54.5 nM

SMILES: [2H]C([2H])([2H])NC(=O)c1cnc(NC(=O)[C@@H]2C[C@@H]2F)cc1Nc1nn(C)c2ccc([C@H](O)C(F)(F)F)c(OC)c12 [Example 194, 6-((1S,2S)-2-Fluorocyclopropane-1-carboxamido)-4-((4-methoxy-1-methyl-5-((S)-2,2,2-trifluoro-1-hydroxyethyl)-1H-indazol-3-yl)amino)-N-(methyl-d3)nicotinamide]
IC50 (TYK2-JH2 domain; [2]): 0.08 nM | JAK1/TYK2 selectivity (TYK2-JH2 domain; [3]): 48.8 | IC50 (JAK1-JH2 domain; [4]): 3.9 nM | IC50 [1, 5]: 0.241 nM

SMILES: COC(=O)c1cnc(NC(=O)C2CC2)cc1Nc1nn(C)c2ccc(C(C)C(F)(F)F)c(OC)c12 (stereo not drawn) [Example 123, Methyl 6-(cyclopropanecarboxamido)-4-((4-methoxy-1-methyl-5-(1,1,1-trifluoropropan-2-yl)-1H-indazol-3-yl)amino)nicotinate]
IC50 (TYK2-JH2 domain; [2]): 0.37 nM | JAK1/TYK2 selectivity (TYK2-JH2 domain; [3]): 470.33 | IC50 (JAK1-JH2 domain; [4]): 174 nM | IC50 [1, 5]: 88.3 nM
